# Results as given in patent publication US9670261B2 (Sanofi, priority 2012, dated 2017).
# *1 amine or outer side, *2 acyl side, *3 side chain or, on linkers, in order; H or OH if unused. Where a SMILES comes first, the peptide text is derived from it. Side-chain parts run from the residue outwards. [ ]: non-standard residue; d: D form. The star is where a group is joined. γGlu = O=C(O)[C@H](CCC(=O)[*:2])N[*:1]; Palmitoyl = CCCCCCCCCCCCCCCC(=O)*; Aib = CC(C)(N)C(=O)O
# What was measured:
# female NMRI-mice [1] = experiment: Gastric emptying and intestinal passage in mice; type: in vivo; settings: versus vehicle control
# Protocol: Female NMRI-mice of a body weight between 20 and 30 g were used. Mice were adapted to housing conditions for at least one week. Mice were overnight fasted, while water remained available all the time. On the study day, mice were weighed, single-caged and allowed access to 500 mg of feed for 30 min, while water was removed. At the end of the […], remaining feed was removed and weighed. Then, the test compound/reference compound or its vehicle in the control group was administered subcutaneously. 60 min later, to allow the compound to reach relevant plasma exposure, a coloured, non-caloric bolus was instilled via gavage into the stomach. After another 30 min, the animals were sacrificed and the stomach and the small intestine prepared. The filled stomach was weighed, emptied, carefully cleaned and dried and reweighed. The stomach content, calculated as weight of filled subtracted by the weight of emptied stomach, indicated the degree of gastric emptying. The small intestine was straightened without force and measured in length. Then the distance from the gastric beginning of the gut to the tip of the farthest traveled intestinal content bolus was measured. The intestinal passage was given as ratio in percent of the latter distance and the total length of the small intestine. […] Statistical analyses were performed with Everstat 6.0 by 1-way-ANOVA, followed by Dunnett's as post-hoc test. Dunnett's Test was applied to compare versus vehicle control. Differences were considered statistically significant at the p<0.05 level.
# [2] = tested on: female leptin-receptor deficient diabetic db/db mice; experiment: Blood glucose and HbA1c in leptin-receptor deficient diabetic db/db mice (method 3); type: in vivo
# Method in brief: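 Female db/db mice (9–10 weeks at arrival) dosed at 5 mL/kg for 4 weeks with free food and water. Tail blood without anaesthesia: glucose by hexokinase and HbA1c measured before and at end of treatment, plus a 24-h glucose profile; repeated-measures two-way ANOVA with Dunnett's versus vehicle db/db, p<0.05.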
# human GLP-1 receptor = target: T1, human GLP-1 receptor (Homo sapiens, UniProt P43220); experiment: cAMP response (HTRF) of HEK-293 cells stably expressing human GLP-1 receptor; type: cell-based; settings: Table 7; cAMP formation; read-out: EC50 hGLP-1 R
# T1 construct: expressed in transfected cells
# Method in brief: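 cAMP accumulation was read by homogeneous time-resolved fluorescence after 30 min compound exposure at room temperature. Stable receptor-expressing HEK-293 cells, 400000 cells/ml, were used in HEPES-buffered HBSS containing 0.1% BSA and the phosphodiesterase inhibitor IBMX (2 mM).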
# [3] = Pharmacokinetic testing in mice, s.c.; settings: mouse, plasma, sc, 1 mg/kg
# Protocol: Mice were dosed 1 mg/kg subcutaneously (s.c.). The mice were sacrified and blood samples were collected after 0.25, 0.5, 1, 2, 4, 8, 16 and 24 hours post application. Plasma samples were analyzed after protein precipitation via liquid chromatography mass spectrometry (LC/MS). PK parameters and half-life were calculated using WinonLin Version 5.2.1 (non-compartment model).
# [4] = Solubility testing in buffer (HPLC-UV); settings: buffer
# [5] = Pharmacokinetic testing in Göttinger minipigs, s.c.; type: in vivo; settings: female, minipig, plasma, sc, Mini pigs, 0.1 mg/kg s.c.
# Protocol: Female Göttinger minipigs were dosed 0.1 mg/kg subcutaneously (s.c.). Blood samples were collected after 0.25, 0.5, 1, 2, 4, 8, 24, 32, 48, 56 and 72 hours post application. Plasma samples were analyzed after protein precipitation via liquid chromatography mass spectrometry (LC/MS). PK parameters and half-life were calculated using WinonLin Version 5.2.1 (non-compartment model).
# female NMRI-mice [6] = experiment: Automated assessment of 22-hours feed intake in mice; type: in vivo
# Protocol: Female NMRI-mice of a body weight between 20 and 30 g were used. Mice were adapted to housing conditions for at least one week and for at least one day single-caged in the assessment equipment, when basal data were recorded simultaneously. On the study day, test product was administered subcutaneously close to the lights-off phase (12 h lights off) and assessment of feed consumption was directly started afterwards. Assessment included continued monitoring over 22 hours, while data are processed as mean over every 30 min. Repetition of this procedure over several days was possible. Restriction of assessment to 22 hours was for practical reasons to allow for reweighing of animals, refilling of feed and water and drug administration between procedures. Results could be assessed as cumulated data over 22 hours or differentiated to 30 min intervals. […] Statistical analyses were performed with Everstat 6.0 by two-way ANOVA on repeated measures and Dunnett's post-hoc analyses. Differences were considered statistically significant at the p<0.05 level. […] Lights-off phase (dark phase) started 4 hours later. […].
# T1 sequence (P43220 24-463): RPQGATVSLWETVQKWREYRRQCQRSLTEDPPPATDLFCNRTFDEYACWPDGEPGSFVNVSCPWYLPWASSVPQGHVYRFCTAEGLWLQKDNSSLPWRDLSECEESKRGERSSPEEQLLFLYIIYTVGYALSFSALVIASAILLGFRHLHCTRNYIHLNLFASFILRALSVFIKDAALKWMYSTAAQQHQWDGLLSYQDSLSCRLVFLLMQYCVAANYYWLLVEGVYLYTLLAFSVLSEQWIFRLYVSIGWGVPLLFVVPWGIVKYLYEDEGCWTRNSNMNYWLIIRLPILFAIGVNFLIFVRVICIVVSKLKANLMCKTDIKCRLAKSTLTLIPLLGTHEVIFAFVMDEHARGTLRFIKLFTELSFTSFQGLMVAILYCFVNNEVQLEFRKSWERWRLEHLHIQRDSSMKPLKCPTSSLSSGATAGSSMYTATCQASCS
compound,measurement,setting,value
"CCCCCCCCCCCCCCCC(=O)N[C@@H](CCC(=O)NCCCC[C@H](NC(=O)[C@H](CCC(N)=O)NC(=O)[C@@H](NC(=O)[C@H](CO)NC(=O)[C@H](CC(C)C)NC(=O)[C@H](CC(=O)O)NC(=O)[C@H](CO)NC(=O)[C@@H](NC(=O)[C@H](Cc1ccccc1)NC(=O)[C@@H](NC(=O)CNC(=O)[C@H](CCC(=O)O)NC(=O)C(C)(C)NC(=O)[C@@H](N)Cc1ccc(O)cc1)[C@@H](C)O)[C@@H](C)O)[C@@H](C)CC)C(=O)N[C@@H](CCC(=O)O)C(=O)N[C@@H](CCCCN)C(=O)N[C@@H](CCCNC(=N)N)C(=O)N[C@@H](C)C(=O)N[C@@H](C)C(=O)NC(C)(C)C(=O)N[C@@H](CCC(=O)O)C(=O)N[C@@H](Cc1ccccc1)C(=O)N[C@H](C(=O)N[C@@H](CCC(=O)O)C(=O)N[C@@H](Cc1c[nH]c2ccccc12)C(=O)N[C@@H](CC(C)C)C(=O)N[C@@H](CCCCN)C(=O)N[C@@H](CC(N)=O)C(=O)N[C@H](C(=O)NCC(=O)N1CCC[C@H]1C(=O)N[C@@H](CO)C(=O)N[C@@H](CO)C(=O)NCC(=O)N[C@@H](C)C(=O)N1CCC[C@H]1C(=O)N1CCC[C@H]1C(=O)N1CCC[C@H]1C(=O)N[C@@H](CO)C(N)=O)[C@@H](C)O)[C@@H](C)CC)C(=O)O [SEQ ID NO: 9, Y-Aib-E-G-T-F-T-S-D-L-S-I-Q-K(γE-x53)-E-K-R-A-A-Aib-E-F-I-E-W-L-K-N-T-G-P-S-S-G-A-P-P-P-S-NH2] (H-Y[Aib]EGTFTSDLSIQK([γGlu-Palmitoyl])EKRAA[Aib]EFIEWLKNTGPSSGAPPPS-NH2)",increase of remaining gastric contents,female NMRI-mice [1]; 1 μg/kg s.c.,32%
same,reduction of intestinal passage,female NMRI-mice [1]; 1 μg/kg s.c.,49%
same,increase of remaining gastric contents,female NMRI-mice [1]; 3 μg/kg s.c.,79%
same,reduction of intestinal passage,female NMRI-mice [1]; 3 μg/kg s.c.,62%
same,increase of remaining gastric contents,female NMRI-mice [1]; 10 μg/kg s.c.,111%
same,reduction of intestinal passage,female NMRI-mice [1]; 10 μg/kg s.c.,64%
same,HbA1c level versus db/db control mice at the end of the study,"[2]; 10, 30 and 100 μg/kg s.c. once daily, 4 weeks, all three doses",lower HbA1c level
same,blood glucose level versus db control mice at the end of the study,"[2]; 10, 30 or 100 μg/kg s.c. once daily, 4 weeks",significant lower blood glucose level
same,blood glucose after 4 weeks of treatment,"[2]; 10, 30 or 100 μg/kg s.c. once daily, 4 weeks, compared with liraglutide","strong and dose-dependent decrease in blood glucose, superior to liraglutide in the medium and highest dose"
same,"blood glucose compared to db/db control mice, 24 h profile","[2]; single 100 μg/kg s.c., fed db/db mice",significant decrease in blood glucose
same,EC50,human GLP-1 receptor,3.6 pM
same,Cmax,[3],5470 ng/mL
same,half-life,[3],4.1 h
same,solubility at 2 h,[4]; pH 4.5,> 1000 µg/mL
same,solubility at 2 h,[4]; pH 7.4,> 1000 µg/mL
same,Cmax,[5],278 ng/mL
same,half-life,[5],12.2 h
same,reduction of feed intake after 22 hours,"female NMRI-mice [6]; 3 μg/kg s.c. (not significant, p=0.78)",11%
same,reduction of feed intake after 22 hours,female NMRI-mice [6]; 10 μg/kg s.c.,62%
